In PubChem BioAssay AID2060883 (Molecular Pharmacology Branch, DTP, NCI, 2025):

System: 843782-103-R-J1-PDC complex spheroid viability
Experiment: Anticancer human tumor 843782-103-R-J1-PDC patient-derived lung adenocarcinoma cell line growth inhibition [RAS]
Details: for IC50: curve of first compound; for viability, T/C: stronger effect = lower value
How it was run: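 Tumour cells grown as complex spheroids with HUVEC endothelial cells and mesenchymal stem cells, treated with RAS pathway inhibitor combinations. Each agent spans half-log steps from near clinical Cmax, or 10 microM where Cmax is unknown.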

[1] = second compound 0.000949 µM, first compound 0.0316 µM
[2] = second compound 0.000949 µM, first compound 0.1 µM
[3] = second compound 0.000949 µM, first compound 0.316 µM
[4] = second compound 0.000949 µM, first compound 1 µM
[5] = second compound 0.000949 µM, first compound 3.16 µM
[6] = second compound 0.000949 µM, first compound 10 µM
[7] = second compound 0.003 µM, first compound 0.0316 µM
[8] = second compound 0.003 µM, first compound 0.1 µM
[9] = second compound 0.003 µM, first compound 0.316 µM
[10] = second compound 0.003 µM, first compound 1 µM
[11] = second compound 0.003 µM, first compound 3.16 µM
[12] = second compound 0.003 µM, first compound 10 µM
[13] = second compound 0.00949 µM, first compound 0.0316 µM
[14] = second compound 0.00949 µM, first compound 0.1 µM
[15] = second compound 0.00949 µM, first compound 0.316 µM
[16] = second compound 0.00949 µM, first compound 1 µM
[17] = second compound 0.00949 µM, first compound 3.16 µM
[18] = second compound 0.00949 µM, first compound 10 µM
[19] = second compound 0.03 µM, first compound 0.0316 µM
[20] = second compound 0.03 µM, first compound 0.1 µM
[21] = second compound 0.03 µM, first compound 0.316 µM
[22] = second compound 0.03 µM, first compound 1 µM
[23] = second compound 0.03 µM, first compound 3.16 µM
[24] = second compound 0.03 µM, first compound 10 µM
[25] = second compound 0.0949 µM, first compound 0.0316 µM
[26] = second compound 0.0949 µM, first compound 0.1 µM
[27] = second compound 0.0949 µM, first compound 0.316 µM
[28] = second compound 0.0949 µM, first compound 1 µM
[29] = second compound 0.0949 µM, first compound 3.16 µM
[30] = second compound 0.0949 µM, first compound 10 µM
[31] = second compound 0.3 µM, first compound 0.0316 µM
[32] = second compound 0.3 µM, first compound 0.1 µM
[33] = second compound 0.3 µM, first compound 0.316 µM
[34] = second compound 0.3 µM, first compound 1 µM
[35] = second compound 0.3 µM, first compound 3.16 µM
[36] = second compound 0.3 µM, first compound 10 µM
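Also: viability read after seven days of compound exposure.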

C[C@@H](NC(=O)c1ncnc(N)c1Cl)c1ncc(C(=O)Nc2cc(C(F)(F)F)c(Cl)cn2)s1 + C#Cc1c(F)ccc2cc(O)cc(-c3ncc4c(N5CC6CCC(C5)N6)nc(OCC56CCCN5CC(F)C6)nc4c3F)c12 was tested, and the IC50 (second compound 0.0316 µM) was > 10 µM, the IC50 (second compound 0.1 µM) was > 10 µM and the IC50 (second compound 0.316 µM) was > 10 µM. The IC50 (second compound 1 µM) was > 10 µM, the IC50 (second compound 3.16 µM) was > 10 µM and the IC50 (second compound 10 µM) was > 10 µM. For the same molecule, the viability, T/C (second compound 0.0316 µM, first compound 0.0316 µM) was 114%, the viability, T/C (second compound 0.0316 µM, first compound 0.1 µM) was 97.2% and the viability, T/C (second compound 0.0316 µM, first compound 0.316 µM) was 99.9%. The viability, T/C (second compound 0.0316 µM, first compound 1 µM) was 101%, the viability, T/C (second compound 0.0316 µM, first compound 3.16 µM) was 112% and the viability, T/C (second compound 0.0316 µM, first compound 10 µM) was 101%. It also gave a viability, T/C (second compound 0.1 µM, first compound 0.0316 µM) of 112%, a viability, T/C (second compound 0.1 µM, first compound 0.1 µM) of 105% and a viability, T/C (second compound 0.1 µM, first compound 0.316 µM) of 98.6%. The viability, T/C (second compound 0.1 µM, first compound 1 µM) was 101%, the viability, T/C (second compound 0.1 µM, first compound 3.16 µM) was 101% and the viability, T/C (second compound 0.1 µM, first compound 10 µM) was 105%. The viability, T/C (second compound 0.316 µM, first compound 0.0316 µM) was 110%, the viability, T/C (second compound 0.316 µM, first compound 0.1 µM) was 104% and the viability, T/C (second compound 0.316 µM, first compound 0.316 µM) was 103%. For the same molecule, the viability, T/C (second compound 0.316 µM, first compound 1 µM) was 102%, the viability, T/C (second compound 0.316 µM, first compound 3.16 µM) was 106% and the viability, T/C (second compound 0.316 µM, first compound 10 µM) was 108%. For the same molecule, the viability, T/C (second compound 1 µM, first compound 0.0316 µM) was 101%, the viability, T/C (second compound 1 µM, first compound 0.1 µM) was 100% and the viability, T/C (second compound 1 µM, first compound 0.316 µM) was 105%. It also gave a viability, T/C (second compound 1 µM, first compound 1 µM) of 101%, a viability, T/C (second compound 1 µM, first compound 3.16 µM) of 97.2% and a viability, T/C (second compound 1 µM, first compound 10 µM) of 95.9%. For the same molecule, the viability, T/C (second compound 3.16 µM, first compound 0.0316 µM) was 86.9%, the viability, T/C (second compound 3.16 µM, first compound 0.1 µM) was 91% and the viability, T/C (second compound 3.16 µM, first compound 0.316 µM) was 90.5%. For the same molecule, the viability, T/C (second compound 3.16 µM, first compound 1 µM) was 92.7%, the viability, T/C (second compound 3.16 µM, first compound 3.16 µM) was 80.9% and the viability, T/C (second compound 3.16 µM, first compound 10 µM) was 87.2%. The viability, T/C (second compound 10 µM, first compound 0.0316 µM) was 73.3%, the viability, T/C (second compound 10 µM, first compound 0.1 µM) was 84.3% and the viability, T/C (second compound 10 µM, first compound 0.316 µM) was 64.8%. For the same molecule, the viability, T/C (second compound 10 µM, first compound 1 µM) was 48.9%, the viability, T/C (second compound 10 µM, first compound 3.16 µM) was 54.9% and the viability, T/C (second compound 10 µM, first compound 10 µM) was 49.1%.
C[C@@H](NC(=O)c1ncnc(N)c1Cl)c1ncc(C(=O)Nc2cc(C(F)(F)F)c(Cl)cn2)s1 + CCn1c(-c2cccnc2C(C)OC)c2c3cc(ccc31)N1CCOC(CC(NC(=O)C(C(C)C)N(C)C(=O)C3(F)CCN(C(=O)C#CC(C)(C)N(C)C)CC3)C(=O)N3CCCC(N3)C(=O)OCC(C)(C)C2)C1 was tested, and the IC50 (second compound 0.000949 µM) was > 10 µM, the IC50 (second compound 0.003 µM) was > 10 µM and the IC50 (second compound 0.00949 µM) was > 10 µM. The IC50 (second compound 0.03 µM) was > 10 µM, the IC50 (second compound 0.0949 µM) was > 10 µM and the IC50 (second compound 0.3 µM) was > 10 µM. It also gave a viability, T/C [1] of 83.6%, a viability, T/C [2] of 84.5% and a viability, T/C [3] of 81.7%. It also gave a viability, T/C [4] of 79.2%, a viability, T/C [5] of 78.3% and a viability, T/C [6] of 79.2%. It also gave a viability, T/C [7] of 77.5%, a viability, T/C [8] of 80.8% and a viability, T/C [9] of 80.2%. For the same molecule, the viability, T/C [10] was 75.2%, the viability, T/C [11] was 89.1% and the viability, T/C [12] was 82.1%. For the same molecule, the viability, T/C [13] was 76.6%, the viability, T/C [14] was 88.9% and the viability, T/C [15] was 84.4%. For the same molecule, the viability, T/C [16] was 80.3%, the viability, T/C [17] was 78.6% and the viability, T/C [18] was 77.5%. The viability, T/C [19] was 88.5%, the viability, T/C [20] was 83.4% and the viability, T/C [21] was 81.4%. The viability, T/C [22] was 79.7%, the viability, T/C [23] was 95.9% and the viability, T/C [24] was 68.2%. It also gave a viability, T/C [25] of 81.2%, a viability, T/C [26] of 86.1% and a viability, T/C [27] of 81.5%. For the same molecule, the viability, T/C [28] was 79%, the viability, T/C [29] was 88.8% and the viability, T/C [30] was 75.3%. For the same molecule, the viability, T/C [31] was 75.7%, the viability, T/C [32] was 82.7% and the viability, T/C [33] was 77.9%. The viability, T/C [34] was 75.4%, the viability, T/C [35] was 80.1% and the viability, T/C [36] was 76.7%.
In the case of CC(C)NCC(C(=O)N1CCN(c2ncnc3c2C(C)CC3O)CC1)c1ccc(Cl)cc1 (stereo unspecified) + CCn1c(-c2cc(N3CCN(C)CC3)cnc2C(C)OC)c2c3cc(ccc31)-c1csc(n1)CC(NC(=O)C1CC1C)C(=O)N1CCCC(N1)C(=O)OCC(C)(C)C2, the IC50 (second compound 0.000949 µM) is reported as 0.511 µM, the IC50 (second compound 0.003 µM) is reported as 0.242 µM and the IC50 (second compound 0.00949 µM) is reported as < 0.0316 µM. The IC50 (second compound 0.03 µM) was < 0.0316 µM, the IC50 (second compound 0.0949 µM) was < 0.0316 µM and the IC50 (second compound 0.3 µM) was < 0.0316 µM. It also gave a viability, T/C [1] of 80.6%, a viability, T/C [2] of 73.9% and a viability, T/C [3] of 64.6%. The viability, T/C [4] was 30.4%, the viability, T/C [5] was 14.7% and the viability, T/C [6] was 6.49%. For the same molecule, the viability, T/C [7] was 62.2%, the viability, T/C [8] was 63.7% and the viability, T/C [9] was 44.8%. The viability, T/C [10] was 25.8%, the viability, T/C [11] was 10.7% and the viability, T/C [12] was 5.07%. For the same molecule, the viability, T/C [13] was 39.6%, the viability, T/C [14] was 38% and the viability, T/C [15] was 24.9%. The viability, T/C [16] was 15%, the viability, T/C [17] was 8.4% and the viability, T/C [18] was 4.07%. For the same molecule, the viability, T/C [19] was 22.4%, the viability, T/C [20] was 25% and the viability, T/C [21] was 16.6%. For the same molecule, the viability, T/C [22] was 9.92%, the viability, T/C [23] was 7.32% and the viability, T/C [24] was 2.47%. It also gave a viability, T/C [25] of 16.7%, a viability, T/C [26] of 18% and a viability, T/C [27] of 13.8%. For the same molecule, the viability, T/C [28] was 8.39%, the viability, T/C [29] was 5.39% and the viability, T/C [30] was 2.13%. The viability, T/C [31] was 18%, the viability, T/C [32] was 14% and the viability, T/C [33] was 12.4%. For the same molecule, the viability, T/C [34] was 7.41%, the viability, T/C [35] was 3.93% and the viability, T/C [36] was 1.56%.
